Assay results: patent US20130130175A1, “Compound for Photoacid Generator, Resist Composition Using the Same, and Pattern-Forming Method” (CENTRAL GLASS COMPANY, LIMITED, priority 2007, published 2013)
Where two headings read alike, the source gives them in different places.

Assay: Solubility in propylene glycol methyl ether acetate
Assay type: physicochemical
Excerpt: 1.0 g of sodium 2-(1′-adamantane)carbonyloxy-1,1-difluoroethanesulfonate synthesized in Synthesis Example 8 was weighed and added to 100 g of propylene glycol methyl ether acetate, followed by stirring.
1.0 g of sodium 2-(3′-hydroxy-1′-adamantane)carbonyloxy-1,1-difluoroethanesulfonate synthesized in Synthesis Example 11 was weighed and added to 100 g of propylene glycol methyl ether acetate, followed by stirring.

SMILES | Solubility | Solubility (1.0 g added to 100 g of propylene glycol methyl ether acetate, stirring)
O=C(OCC(F)(F)S(=O)(=O)O)C12CC3CC(CC(C3)C1)C2 [Synthesis Example 8, triphenylsulfonium 2-(1′-adamantane)carbonyloxy-1,1-difluoroethanesulfonate] | completely dissolved | –
O=C(OCC(F)(F)S(=O)(=O)O)C12CC3CC(CC(O)(C3)C1)C2 [Synthesis Example 11, triphenylsulfonium 2-(3′-hydroxy-1′-adamantane)carbonyloxy-1,1-difluoroethanesulfonate] | – | completely dissolved
